Measurements published in US20260240906A1, “MUSCLE MASS INCREASING AGENT AND ENDURANCE IMPROVING AGENT” (KOHAKU BIO TECHNOLOGY CO., LTD., priority 2023, published 2026).

How the values were obtained:
Format in all cases: cell-based, mouse
C2Cl2 myotube cells [1] = experiment: Effect on intracellular ATP concentration (luciferin-luciferase system); conditions: 6 hours or 12 hours
Protocol: (§1) The amber extract obtained through extraction by the method of Example 1 was analyzed for its action using myoblasts C2Cl2. The C2Cl2 cells are cells established from mouse regenerating muscles (striated muscles) and are considered to be derived from muscle satellite cells. The myoblasts, when cultured in a differentiation inducing medium, are fused and differentiated into myotube cells.
(§2) The C2Cl2 myoblasts were cultured in Dulbecco's modified Eagle medium (DMEM) supplemented with 10% FBS, penicillin (100 Us/ml), and streptomycin ([…]) under conditions of 37° C. and 5% CO2. Differentiation into myotube cells was induced by medium replacement with DMEM containing 2% horse serum when the cells reached 95% confluency. The experiment was carried out using the differentiated C2Cl2 myotube after 5 to 7 days from the induction of differentiation.
Intracellular ATP levels were measured using a luciferin-luciferase system. C2Cl2 cells were inoculated at 0.5×10^4 cells/well to a 96-well plate and cultured at 37° C. for 48 hours until confluent. After induction of differentiation for 5 days, the cells were treated with the amber extract (25 or 50 μg/mL) prepared by the method of Example 1 or succinic acid (2.5 or 5 μg/mL) for 6 hours or 12 hours. The luminescence of each well was measured at 480/530 nm (excitation/luminescence) using a microplate reader (Synergy H1, BioTek Instruments).

C2Cl2 myotube cells [2] = experiment: Detection of mitochondrial ROS; conditions: 1, 2.5, or 5 μg/mL, 24 hours
Protocol: as §1, §2
Accordingly, in order to confirm this, mitochondrial ROS was detected. C2Cl2 cells were inoculated at 0.5×10^4 cells/well to a 96-well plate and cultured at 37° C. for 48 hours until confluent. After induction of differentiation for 5 days in a differentiation inducing medium, the cells were treated with the amber extract ([…]) or succinic acid (1, 2.5, or 5 μg/mL) for 24 hours. The mitochondrial ROS was measured at 485/565 nm (excitation/fluorescence) using Mitochondrial ROS Detection Assay Kit (Cayman Chemical Company).

C2Cl2 myotube cells [3] = experiment: Detection of mitochondrial membrane potential (JC-1); conditions: 1, 2.5, or 5 μg/mL, 24 hours
Protocol: as §1, §2
Mitochondrial membrane potential serving as an indicator for mitochondrial activation was also analyzed. C2Cl2 cells were inoculated at 0.5×10^4 cells/well to a 96-well plate and cultured at 37° C. for 48 hours until confluent. […] The mitochondrial membrane potential was measured at green: 485/535 nm (excitation/fluorescence) and red: 535/595 nm (excitation/fluorescence) using JC-1 MitoMP Detection Kit (Dojindo Laboratories).

SMILES: O=C(O)CCC(=O)O [succinic acid]
- ATP concentration (C2Cl2 myotube cells [1]; 2.5 μg/mL): no change
- ATP concentration (C2Cl2 myotube cells [1]; 5 ug/mL): no change
- mitochondrial activation (mitochondrial ROS) (C2Cl2 myotube cells [2]): no mitochondrial activation
- mitochondrial activation (membrane potential) (C2Cl2 myotube cells [3]): no mitochondrial activation
